Data reported in ChEMBL document CHEMBL5338791, “Discovery of Novel 1,3-Diphenylpyrazine Derivatives as Potent S-Phase Kinase-Associated Protein 2 (Skp2) Inhibitors for the Treatment of Cancer” (J Med Chem, 2023).
The source made the active and inactive calls. The calls are words filed in the database; no cut-off is given here.

Key:
[1] = Metabolic stability in human liver microsome assessed as half life at 20 umol/L preincubated for 5 mins followed by NADPH addition measured upto 60 mins by LC-MS/MS analysis; assay type: ADME; conditions: liver microsomes, dose 20 µmol/L, time < 65 min
A2780 = test: Antitumor activity against human A2780 cells with low Skp2 expression assessed as cell growth inhibition incubated for 72 hrs by MTT assay; assay type: functional, cell-based; conditions: A2780, 72 h
PC-3 [2] = test: Induction of cell cycle arrest in human PC-3 cells assessed as accumulation of cells at S phase at 5 uM incubated for 48 hrs by flow cytometry (reference value: 22.44 %); assay type: functional
[3] = Apparent volume of distribution in plasma of NOD-SCID mouse model xenografted with human PC-3 cells at 25 mg/kg, IG measured upto 48 hrs by LC-MS/MS analysis; assay type: ADME, organism-based; conditions: in vivo, po
PC-3 [4] = test: Induction of cell cycle arrest in human PC-3 cells assessed as accumulation of cells at G2 phase at 10 uM incubated for 24 hrs by flow cytometry (reference value: 19.34 %); assay type: functional
PC-3 [5] = test: Induction of apoptosis in human PC-3 cells assessed as late apoptotic cells at 2.5 uM incubated for 48 hrs by annexin V-FITC/PI staining based flow cytometry (reference value: 0.45 %); assay type: functional
PC-3 [6] = test: Antitumor activity against human PC-3 cells xenografted in NOD-SCID mouse model assessed as downregulation of ki67 level at 10 to 50 mg/kg, IG administered once every 2 days for 21 days by Western blot analysis; assay type: functional, organism-based; conditions: dose 10-50 mg/kg, time 21.0 day
PC-3 [7] = test: Induction of cell cycle arrest in human PC-3 cells assessed as accumulation of cells at G2 phase at 10 uM incubated for 48 hrs by flow cytometry (reference value: 22.59 %); assay type: functional
MGC-803 [8] = test: Induction of apoptosis in human MGC-803 cells assessed as necrotic cells at 5 uM incubated for 48 hrs by annexin V-FITC/PI staining based flow cytometry (reference value: 0.89 %); assay type: functional
PC-3 [9] = test: Induction of cell cycle arrest in human PC-3 cells assessed as accumulation of cells at G1 phase at 10 uM incubated for 12 hrs by flow cytometry (reference value: 56.81 %); assay type: functional
MGC-803 [10] = test: Induction of cell cycle arrest in human MGC-803 cells assessed as accumulation of cells at G1 phase at 10 uM incubated for 36 hrs by flow cytometry (reference value: 57.09 %); assay type: functional
PC-3 [11] = test: Upregulation of p27 level in human PC-3 cells upto 10 uM by Western blot analysis; assay type: functional, cell-based; conditions: time 48.0 hrs, TDE = time-dependent effect
PC-3 [12] = test: Induction of cell cycle arrest in human PC-3 cells assessed as accumulation of cells at S phase at 2.5 uM incubated for 48 hrs by flow cytometry (reference value: 22.44 %); assay type: functional
[13] = AUC (infinity) in tumor of NOD-SCID mouse model xenografted with human PC-3 cells at 25 mg/kg, IG measured upto 48 hrs by LC-MS/MS analysis; assay type: ADME, organism-based, Neoplasm; set-up: dose 25 mg/kg, time < 48 hrs, route ig; conditions: in vivo, po
[14] = Toxicity in NOD-SCID mouse model xenografted with human MGC-803 cells assessed as drug tolerance at 10 to 50 mg/kg, IG administered once every 2 days for 21 days; assay type: organism-based; conditions: in vivo, po, 504 h, dose 10-50 mg/kg, time 21 day
MGC-803 [15] = test: Induction of cell cycle arrest in human MGC-803 cells assessed as accumulation of cells at G2 phase at 10 uM incubated for 36 hrs by flow cytometry (reference value: 20.64 %); assay type: functional
[16] = Toxicity in NOD-SCID mouse model xenografted with human PC-3 cells assessed as change in heart histology at 10 to 50 mg/kg, IG administered once every 2 days for 21 days by H and E staining based analysis; assay type: organism-based; conditions: in vivo, po, 504 h, dose 10-50 mg/kg, time 21 day
MGC-803 [17] = test: Induction of apoptosis in human MGC-803 cells assessed as necrotic cells at 2.5 uM incubated for 48 hrs by annexin V-FITC/PI staining based flow cytometry (reference value: 0.89 %); assay type: functional
PC-3 [18] = test: Downregulation of Skp2 level in human PC-3 cells incubated for 48 hrs by Western blot analysis; assay type: functional, cell-based; conditions: dose <= 10.0 µM
MGC-803 [19] = test: Induction of cell cycle arrest in human MGC-803 cells assessed as accumulation of cells at G2 phase at 10 uM incubated for 48 hrs by flow cytometry (reference value: 21.35 %); assay type: functional
PC-3 [20] = test: Inhibition of colony formation in human PC-3 cells at 0.5 to 2 uM incubated for 10 days by crystal violet staining based microscopy; assay type: functional, cell-based; conditions: dose 0.5-2 µM, time 10.0 day
MGC-803 [21] = test: Induction of cell cycle arrest in human MGC-803 cells assessed as accumulation of cells at S phase at 10 uM incubated for 6 hrs by flow cytometry (reference value: 20.41 %); assay type: functional
MGC-803 [22] = test: Induction of apoptosis in human MGC-803 cells assessed as late apoptotic cells at 2.5 uM incubated for 48 hrs by annexin V-FITC/PI staining based flow cytometry (reference value: 0.95 %); assay type: functional
[23] = Metabolic stability in mouse liver S9 fraction assessed as half life at 20 umol/L preincubated for 5 mins followed by NADPH addition measured upto 60 mins by LC-MS/MS analysis; assay type: ADME, subcellular; conditions: dose 20 µmol/L, time < 65 min

O=C(CCl)NC1CCN(c2cnc(-c3ccccc3)c(-c3ccccc3)n2)CC1
half-life at 20 µM [1]: 66 min | IC50 (A2780): 14.3 µM | Activity (PC-3 [2]): 38.7% | Vz [3]: 143.3 L/kg | Activity (PC-3 [4]): 15.19% | Activity (PC-3 [5]): 4.97% | Activity (PC-3 [6]): Active | Activity (PC-3 [7]): 16.41% | Activity (MGC-803 [8]): 1.27% | Activity (PC-3 [9]): 44.95% | Activity (MGC-803 [10]): 35.48% | Activity (PC-3 [11]): Tde | Activity (PC-3 [12]): 29.96% | AUC [13]: 2636 ng·h/g | Activity [14]: Non-Toxic | Activity (MGC-803 [15]): 19.76% | Activity [16]: Non-Toxic | Activity (MGC-803 [17]): 1.02% | Activity (PC-3 [18]): Dose-Dependent Effect | Activity (MGC-803 [19]): 14.35% | inhibition (PC-3 [20]): Active | Activity (MGC-803 [21]): 29.93% | Activity (MGC-803 [22]): 6.57% | half-life at 20 µM [23]: 16.5 min
